PMC6720019 (Pharmaceutical Biology, 2019)

Legend:
Format in all cases: in vitro ADME
Settings in all cases: 100 μM KF, pooled HLMs
[1] = target: T1, CYP2A6 (Homo sapiens, UniProt P11509); assay: CYP2A6 inhibition in pooled human liver microsomes (coumarin 7-hydroxylation)
T1 construct: effects of KF on eight major CYP isoforms in human liver microsomes (HLMs); from tissue; host or cells: human liver microsomes
T1 sequence (P11509 1-494): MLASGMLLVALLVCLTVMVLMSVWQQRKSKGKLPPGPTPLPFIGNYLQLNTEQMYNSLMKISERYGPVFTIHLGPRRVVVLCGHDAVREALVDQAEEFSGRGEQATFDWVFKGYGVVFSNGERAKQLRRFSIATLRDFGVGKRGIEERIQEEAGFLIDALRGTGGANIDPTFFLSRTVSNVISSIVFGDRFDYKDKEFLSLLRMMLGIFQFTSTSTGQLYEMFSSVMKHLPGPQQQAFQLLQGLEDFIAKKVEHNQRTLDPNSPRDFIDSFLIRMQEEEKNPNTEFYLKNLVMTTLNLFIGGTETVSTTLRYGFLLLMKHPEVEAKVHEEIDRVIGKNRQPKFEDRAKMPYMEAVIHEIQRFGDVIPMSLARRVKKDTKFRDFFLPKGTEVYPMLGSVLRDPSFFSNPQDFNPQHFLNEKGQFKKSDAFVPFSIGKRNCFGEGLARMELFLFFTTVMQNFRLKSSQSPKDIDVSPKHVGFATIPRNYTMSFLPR
Procedure: (§1) All incubations were performed in triplicate, and the mean values were utilized. The typical incubation systems contained 100 mM potassium phosphate buffer (pH 7.4), NADPH generating system (1 mM NADP^+, 10 mM glucose-6-phosphate, 1 U/mL of glucose-6-phosphate dehydrogenase, and 4 mM MgCl2), the appropriate concentration of HLM, a corresponding probe substrate and KF (or positive inhibitor for different probe reactions) in a final volume of 200 μL.
(§2) The concentration of KF was 100 μM according literatures (Lang et al. [2016]; Liu et al. [2017]; Zhang et al. [2019]), and the positive inhibitor concentrations were as follows: 10 μM furafylline for CYP1A2, 1 μM ketoconazole for CYP3A4, 10 μM tranylcypromine for CYP2A6, 50 μM clomethiazole for CYP2E1, 10 μM quinidine for CYP2D6, 10 μM sulfaphenazole for CYP2C9, 50 μM tranylcypromine for CYP2C19, 5 μM montelukast for CYP2C8. Probe substrates, positive inhibitors (except for dextromethorphan and quinidine which were dissolved in water) and KF were dissolved in methanol, with a final concentration of 1% (v/v), and 1% neat methanol was added to the incubations without inhibitor. […] The instrument used in this study were Agilent 1260 series instrument with DAD and FLD detector, and the quantitative assay for the corresponding metabolites was performed as previously reported (Lang et al. [2016]; Zhang et al. 2016). […]

[2] = target: T2, CYP2E1 (Homo sapiens, UniProt P05181); assay: CYP2E1 inhibition in pooled human liver microsomes (chlorzoxazone 6-hydroxylation)
T2 construct: effects of KF on eight major CYP isoforms in human liver microsomes (HLMs); from tissue; host or cells: human liver microsomes
Procedure: as §1, §2

[3] = target: T3, CYP2D6 (Homo sapiens, UniProt P10635); assay: CYP2D6 inhibition in pooled human liver microsomes (dextromethorphan O-demethylation)
T3 construct: effects of KF on eight major CYP isoforms in human liver microsomes (HLMs); from tissue; host or cells: human liver microsomes
Procedure: as §1, §2

[4] = target: T4, CYP2C19 (Homo sapiens, UniProt P33261); assay: CYP2C19 inhibition in pooled human liver microsomes (S-mephenytoin 4-hydroxylation)
T4 construct: effects of KF on eight major CYP isoforms in human liver microsomes (HLMs); from tissue; host or cells: human liver microsomes
Procedure: as §1, §2

[5] = target: T5, CYP2C8 (Homo sapiens, UniProt P10632); assay: CYP2C8 inhibition in pooled human liver microsomes (paclitaxel 6α-hydroxylation)
T5 construct: effects of KF on eight major CYP isoforms in human liver microsomes (HLMs); from tissue; host or cells: human liver microsomes
T5 sequence (P10632 1-490): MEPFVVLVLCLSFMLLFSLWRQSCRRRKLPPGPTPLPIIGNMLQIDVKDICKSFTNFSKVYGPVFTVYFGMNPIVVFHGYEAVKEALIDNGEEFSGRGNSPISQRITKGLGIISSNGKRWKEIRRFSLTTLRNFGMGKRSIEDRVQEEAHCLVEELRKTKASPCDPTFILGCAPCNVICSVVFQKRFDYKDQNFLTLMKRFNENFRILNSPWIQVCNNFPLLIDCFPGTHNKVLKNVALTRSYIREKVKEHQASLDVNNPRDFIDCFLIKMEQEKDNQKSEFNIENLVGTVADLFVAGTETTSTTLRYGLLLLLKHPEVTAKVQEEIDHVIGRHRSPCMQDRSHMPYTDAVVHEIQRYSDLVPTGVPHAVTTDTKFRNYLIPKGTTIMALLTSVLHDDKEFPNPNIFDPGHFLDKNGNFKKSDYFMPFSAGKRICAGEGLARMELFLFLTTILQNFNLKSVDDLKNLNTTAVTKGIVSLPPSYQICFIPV
Procedure: as §1, §2

T3 sequence (P10635 whole entry, canonical isoform): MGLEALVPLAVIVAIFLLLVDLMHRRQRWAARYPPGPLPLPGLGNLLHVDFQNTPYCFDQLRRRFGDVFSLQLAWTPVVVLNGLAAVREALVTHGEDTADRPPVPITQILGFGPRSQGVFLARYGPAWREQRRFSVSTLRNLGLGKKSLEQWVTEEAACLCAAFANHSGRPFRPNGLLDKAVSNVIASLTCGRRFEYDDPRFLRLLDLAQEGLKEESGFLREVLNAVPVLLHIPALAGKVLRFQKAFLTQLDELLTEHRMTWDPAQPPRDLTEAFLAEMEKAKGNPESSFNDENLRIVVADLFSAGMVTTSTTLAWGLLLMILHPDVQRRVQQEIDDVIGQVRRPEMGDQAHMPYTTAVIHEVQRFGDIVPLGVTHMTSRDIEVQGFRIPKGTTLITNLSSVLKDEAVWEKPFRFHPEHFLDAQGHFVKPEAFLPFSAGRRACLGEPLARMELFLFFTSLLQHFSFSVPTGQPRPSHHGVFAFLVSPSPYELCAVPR
T2 sequence (P05181 whole entry, canonical isoform): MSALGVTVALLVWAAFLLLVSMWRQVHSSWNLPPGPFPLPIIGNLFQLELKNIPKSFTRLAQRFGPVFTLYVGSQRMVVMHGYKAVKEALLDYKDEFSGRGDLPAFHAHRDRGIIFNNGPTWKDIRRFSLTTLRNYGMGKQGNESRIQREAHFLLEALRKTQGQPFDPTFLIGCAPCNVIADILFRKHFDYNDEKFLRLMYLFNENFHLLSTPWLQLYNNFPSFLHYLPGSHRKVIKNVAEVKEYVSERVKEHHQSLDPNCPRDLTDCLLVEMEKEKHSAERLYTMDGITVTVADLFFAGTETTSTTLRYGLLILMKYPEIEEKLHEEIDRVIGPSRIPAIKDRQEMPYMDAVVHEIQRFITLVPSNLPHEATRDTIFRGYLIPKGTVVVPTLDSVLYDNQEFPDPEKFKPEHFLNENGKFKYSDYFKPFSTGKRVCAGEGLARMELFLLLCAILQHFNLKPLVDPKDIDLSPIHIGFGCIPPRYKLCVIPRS
T4 sequence (P33261 whole entry, canonical isoform): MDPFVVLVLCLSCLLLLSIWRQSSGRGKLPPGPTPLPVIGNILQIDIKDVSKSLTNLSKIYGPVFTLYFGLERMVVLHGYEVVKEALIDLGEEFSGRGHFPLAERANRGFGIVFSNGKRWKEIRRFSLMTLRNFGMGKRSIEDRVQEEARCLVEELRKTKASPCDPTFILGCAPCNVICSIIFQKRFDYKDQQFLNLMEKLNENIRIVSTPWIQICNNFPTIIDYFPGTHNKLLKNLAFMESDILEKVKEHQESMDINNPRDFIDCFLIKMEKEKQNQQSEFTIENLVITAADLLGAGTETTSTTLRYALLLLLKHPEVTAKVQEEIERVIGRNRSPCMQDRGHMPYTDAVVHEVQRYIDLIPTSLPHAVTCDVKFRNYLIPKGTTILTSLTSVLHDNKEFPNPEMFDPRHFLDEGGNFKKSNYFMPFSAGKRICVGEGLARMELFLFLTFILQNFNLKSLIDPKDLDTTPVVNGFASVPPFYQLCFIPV

C[C@@H]1O[C@@H](Oc2cc(O)c3c(=O)c(O[C@@H]4O[C@@H](C)[C@H](O)[C@@H](O)[C@H]4O)c(-c4ccc(O)cc4)oc3c2)[C@H](O)[C@H](O)[C@H]1O [KF, Kaempferitrin]
did not inhibit: Inhibition of CYP2A6 activity [1] | Inhibition of CYP2E1 activity [2] | Inhibition of CYP2D6 activity [3] | Inhibition of CYP2C19 activity [4] | Inhibition of CYP2C8 activity [5]
